Source: patent US11492325B2, “Compounds as inhibitors of sodium channels” (Human BioMolecular Research Institute, priority 2016, dated 2022)
Where two headings read alike, the source gives them in different places.

What was measured:
[1] = tested on: normal human induced pluripotent stem cell (hiPSC) cardiomyocyte; conditions: for WT-Fold Prolongation: APD; for WT-Fold Prolongation / Cessation of Beating / WT-Prolongation Dose / WT-EAD Dose: normal hiPSC cardiomyocytes
[2] = tested on: cardiomyocytes derived from hiPSCs from a LQTS3 patient
[3] = tested on: cardiomyocytes derived from hiPSCs from a LQTS3 patient; assay: cells; conditions: Homo sapiens, Cardiomyocyte; for IC50: read-out: LQT-IC50 (uM)-Shortening
[4] = read-out: LQT-EC50 (μM) Shortening, pyridyl derivatives
[5] = WT cardiomyocytes, AP prolongation
[6] = read-out: LQT-EC50 (μM) Shortening, LQT-3 cardiomyocytes, AP shortening
[7] = LQT-3 cardiomyocytes, cessation of beating

Cc1cccnc1OCC(=NOCc1ccccc1)c1ccccc1 [Compound 19]
WT-Fold Prolongation [1]: None
Cessation of Beating [1]: 133 µM
WT-Prolongation Dose [1]: None
WT-Cessation Dose ([1]; pyridyl derivatives): 133 µM
WT-EC50 (μM) Prolongation ([1]; pyridyl derivatives): Does Not Prolong AP
LQT-Cessation Dose ([2]; LQT3 cardiomyocytes): 133 µM
LQT-Fold Shortening ([2]; LQT3 cardiomyocytes): 1.406
LQT-Fold Shortening ([2]; pyridyl derivatives): 1.406
LQT-Shortening Dose ([2]; pyridyl derivatives): 66 µM
EC50 [3, 4]: 1.38 µM
IC50 [3]: 1.38 µM

CC(N)COc1cccc(C(F)(F)F)c1.Cl (centres unmarked) [Compound 85]
WT-Fold Prolongation [1]: None
Cessation of Beating [1]: 200 µM
WT-Prolongation Dose [1]: None
LQT-Cessation Dose ([2]; LQT3 cardiomyocytes): 200 µM
LQT-Fold Shortening ([2]; LQT3 cardiomyocytes): 1.661
IC50 [3]: 31.3 µM

CC(=O)NC(COc1c(C)cccc1C)c1ccccc1 (centres unmarked) [Compound 28, N-(2-(2,6-dimethylphenoxy)-1-phenylethyl)acetamide]
WT-Fold Prolongation [1]: None
Cessation of Beating [1]: 66 µM
WT-Prolongation Dose [1]: None
LQT-Cessation Dose ([2]; LQT3 cardiomyocytes): 66 µM
LQT-Fold Shortening ([2]; LQT3 cardiomyocytes): 1.620
IC50 [3]: > 0.8 µM

Cc1cccc(Cl)c1OC[C@@H](C)N [Compound 56]
WT-Fold Prolongation [1]: 3.925
Cessation of Beating [1]: None
WT-EAD Dose [1]: 133 µM
LQT-Cessation Dose ([2]; LQT3 cardiomyocytes): None
LQT-Fold Shortening ([2]; LQT3 cardiomyocytes): 1.189
IC50 [3]: 0.04 µM

Cc1cccc(C)c1OCC(N)c1ccc(C(F)(F)F)cc1 (centres unmarked) [Compound 16, 2-(2,6-dimethylphenoxy)-1-(4-(trifluoromethyl)phenyl)ethanamine]
WT-Fold Prolongation [1]: None
Cessation of Beating [1]: 66 µM
WT-Prolongation Dose [1]: None
LQT-Cessation Dose ([2]; LQT3 cardiomyocytes): 66 µM
LQT-Fold Shortening ([2]; LQT3 cardiomyocytes): 1.480
IC50 [3]: 1.38 µM

Cc1cccc(C)c1OCC(N)C1CCCCC1.Cl (centres unmarked) [Compound 73]
WT-Fold Prolongation [1]: None
Cessation of Beating [1]: 66 µM
WT-Prolongation Dose [1]: None
LQT-Cessation Dose ([2]; LQT3 cardiomyocytes): 66 µM
LQT-Fold Shortening ([2]; LQT3 cardiomyocytes): 1.136
IC50 [3]: 0.082 µM

Cc1ccc(OCC(N)c2ccccc2)cn1 (centres unmarked) [Compound 114]
WT-EC50 (μM) Prolongation [1, 5]: Does Not Prolong AP
WT-Cessation Dose (μM) ([1]; WT cardiomyocytes, cessation of beating): No cessation of beating
LQT-Fold Shortening ([2]; LQT-3 cardiomyocytes): 1.233
EC50 [3, 6]: 67.5 µM

COCCNC(C)COc1c(C)cccc1C (centres unmarked) [Compound 40, 1-(2,6-dimethylphenoxy)-N-methoxy-ethyl-2-amine]
WT-Fold Prolongation [1]: 4.366
Cessation of Beating [1]: None
WT-EAD Dose [1]: 66 µM
WT-Prolongation Dose [1]: 32 µM
LQT-Cessation Dose ([2]; LQT3 cardiomyocytes): None
LQT-Fold Shortening ([2]; LQT3 cardiomyocytes): 1.267
LQT-Shortening Dose ([2]; LQT3 cardiomyocytes): 7.4 µM
IC50 [3]: 2.31 µM

COCCNC(COc1cc(C)cc(C)c1)C1CC1.Cl (centres unmarked) [Compound 68]
WT-Fold Prolongation [1]: 1.686
Cessation of Beating [1]: 200 µM
WT-EAD Dose [1]: 66 µM
LQT-Cessation Dose ([2]; LQT3 cardiomyocytes): 200 µM
LQT-Fold Shortening ([2]; LQT3 cardiomyocytes): 1.11
IC50 [3]: 0.022 µM

Cc1ccc(OCC(N)C2CC2)c(C)c1.Cl (centres unmarked) [Compound 65]
WT-Fold Prolongation [1]: 2.12
Cessation of Beating [1]: 200 µM
WT-EAD Dose [1]: 66 µM
LQT-Cessation Dose ([2]; LQT3 cardiomyocytes): 200 µM
LQT-Fold Shortening ([2]; LQT3 cardiomyocytes): 1.119
IC50 [3]: 1.36 µM

NC(COc1ncccc1C(F)(F)F)c1ccccc1 (centres unmarked) [Compound 96, 1-phenyl-2-((3-(trifluoromethyl)pyridin-2-yl)oxy)ethan-1-amine]
WT-Fold Prolongation [1]: 1.163
Cessation of Beating [1]: None
WT-Cessation Dose ([1]; pyridyl derivatives): No cessation of beating
WT-EC50 (μM) Prolongation ([1]; pyridyl derivatives): Does Not Prolong AP
LQT-Cessation Dose ([2]; LQT3 cardiomyocytes): None
LQT-Fold Shortening ([2]; LQT3 cardiomyocytes): 1.3
LQT-Fold Shortening ([2]; pyridyl derivatives): 1.358
LQT-Shortening Dose ([2]; pyridyl derivatives): 133 µM
EC50 [3, 4]: 20.7 µM

Cc1cccc(C)c1OCC(NC(=O)c1ccccc1)c1ccccc1 (centres unmarked) [Compound 29, N-(2-(2,6-dimethylphenoxy)-1-phenylethyl)benzamide]
WT-Fold Prolongation [1]: None
Cessation of Beating [1]: None
WT-Prolongation Dose [1]: None
LQT-Cessation Dose ([2]; LQT3 cardiomyocytes): None
LQT-Fold Shortening ([2]; LQT3 cardiomyocytes): 1.64
IC50 [3]: > 0.8 µM

Cc1ccccc1OCC(N)c1ccc2ccccc2c1 (centres unmarked) [Compound 133]
WT-EC50 (μM) Prolongation [1, 5]: Does Not Prolong AP
LQT-Fold Shortening ([2]; LQT-3 cardiomyocytes): 1.302
LQT-Cessation Dose [2, 7]: 133 µM
EC50 [3, 6]: 8.83 µM

NC(COc1ccc2ccccc2c1)c1ccccc1 (centres unmarked) [Compound 130]
WT-EC50 (μM) Prolongation [1, 5]: Does Not Prolong AP
LQT-Fold Shortening ([2]; LQT-3 cardiomyocytes): 1.459
LQT-Cessation Dose [2, 7]: 133 µM
EC50 [3, 6]: 8.7 µM

CCCCNC(COc1cccc(C)c1C)c1ccccc1 (centres unmarked) [Compound 30, 2-(2,3-dimethylphenoxy)-N-butyl-1-phenylethanamine]
WT-Fold Prolongation [1]: None
Cessation of Beating [1]: 133 µM
WT-Prolongation Dose [1]: None
LQT-Cessation Dose ([2]; LQT3 cardiomyocytes): 200 µM
LQT-Fold Shortening ([2]; LQT3 cardiomyocytes): 1.423
IC50 [3]: 20.2 µM

CCc1ccccc1OCC(N)c1ccccc1 (centres unmarked) [Compound 24]
WT-Fold Prolongation [1]: None
Cessation of Beating [1]: 66 µM
WT-Prolongation Dose [1]: None
LQT-Cessation Dose ([2]; LQT3 cardiomyocytes): 22 µM
LQT-Fold Shortening ([2]; LQT3 cardiomyocytes): 1.979
IC50 [3]: 0.38 µM

CCc1ccccc1OCC(C)N (centres unmarked) [Compound 50, 1-(2-Ethylphenoxy)propan-2-amine]
WT-Fold Prolongation [1]: 1.392
Cessation of Beating [1]: None
LQT-Cessation Dose ([2]; LQT3 cardiomyocytes): None
LQT-Fold Shortening ([2]; LQT3 cardiomyocytes): 1.12
IC50 [3]: 6.01 µM

Cc1ncccc1OCC(N)c1ccccc1 (centres unmarked) [Compound 111]
WT-EC50 (μM) Prolongation [1, 5]: Does Not Prolong AP
LQT-Fold Shortening ([2]; LQT-3 cardiomyocytes): 1.426
LQT-Shortening Dose (μM) ([2]; LQT-3 cardiomyocytes): Does Not Shorten
EC50 [3, 6]: 8.57 µM
EC50 [3, 4]: ~8 µM

Cc1cc(C)cc(OC[C@H](N)C2CC2)c1.Cl [Compound 63]
WT-Fold Prolongation [1]: 1.577
Cessation of Beating [1]: None
WT-EAD Dose [1]: 66 µM
LQT-Cessation Dose ([2]; LQT3 cardiomyocytes): 200 µM
LQT-Fold Shortening ([2]; LQT3 cardiomyocytes): 1.11
IC50 [3]: 7.5 µM
